Data: patent US20250345287A1, “COMPOSITION COMPRISING A MIXTURE OF AT LEAST ONE OIL AND ONE OR MORE SEMIFLUORINATED ALKANES, A USE OF THE COMPOSITION FOR TREATING A DISEASE AS WELL AS A METHOD OF PRODUCING THE COMPOSITION AND CORRESPONDING KITS” (Fluoron GmbH, priority 2024, published 2025)
Like-named read-outs stand apart in the source and are kept apart here.

Experiment: Drug solubility/uptake in VitreoDens, posterior segment model
Experimental: Drugs were dissoluted in BSS in clinically relevant concentrations and placed in direct contact with VitreoDens in a ratio of 1:9. 50 μl of the hydrophilic phase were removed from the experiment after 1, 6 and 24 hours and drug concentration was determined using HPLC.
For all the tested small molecule drugs HPLC or HPLC-MS (Agilent 1100 Series) with a reversed-phase C18 column (Chromolith® Performance RP-18e, Merck KGaA Darmstadt, Germany) was performed. Calibration curves and exemplary HPLC runs for each active substance are presented in the Supplementary Materials.
Thus, the solubility of a variety of drugs was tested in VitreoDens in an established posterior segment model (FIGS. 7A and 7B) A >90% fill is mostly thought of as a sufficient fill. Thus, this ratio, given a vitreous cavity volume of 5 ml, was recreated in negatively charged glass vials. First, the drug is injected into the hydrophilic phase at a certain concentration, aliquots of the hydrophilic phase are recovered after certain time points to assess the distribution of the drug in the hydrophilic phase and in VitreoDens (FIG. 7A).

solubility in VitreoDens | Structure (SMILES) | solubility in VitreoDens (in-vitro, posterior segment model, FIG. 7C)
– | O=c1[nH]cc(F)c(=O)[nH]1 [5-Fluoruracil] | excellent solubility
excellent solubility | C=CC[C@@H]1/C=C(\C)C[C@H](C)C[C@H](OC)[C@H]2O[C@@](O)(C(=O)C(=O)N3CCCC[C@H]3C(=O)O[C@H](/C(C)=C/[C@@H]3CC[C@@H](O)[C@H](OC)C3)[C@H](C)[C@@H](O)CC1=O)[C@H](C)C[C@@H]2OC [Tacrolimus] | –
excellent solubility | CC(=O)[C@]1(O)Cc2c(O)c3c(c(O)c2[C@@H](O[C@H]2C[C@H](N)[C@H](O)[C@H](C)O2)C1)C(=O)c1ccccc1C3=O [Idarubicin] | –
excellent solubility | C[C@@H](c1ncncc1F)[C@](O)(Cn1cncn1)c1ccc(F)cc1F [voriconazole] | –
